The source of these data is patent US10383885B2, “Method for treating or preventing dry eyes” (priority 2015, dated 2019).

For assay [1], the system named is Human Corneal Epithelial (HCE) cells. Put plainly: Benzalkonium chloride cell damage model in HCE cells (trypan blue cell count). The format is cell-based. The following applies: HCE cells damaged with 0.0005% benzalkonium chloride for 24 hours, then 0.4, 2, 10 μg/ml compound for 48 hours. The protocol: Benzalkonium Chloride Cell Damage Model
The Human Corneal Epithelial (HCE) cells were seeded on a 6-well plate 5×10^5 cells with 10% FCS in DMEM/F12 for 24 hours. After cell attachment, medium was removed and changed into 0.0005% Benzalkonium chloride for 24 hours, then washed with PBS and treat with different concentrations 0.4, 2, 10 μg/ml of compound of Formula (I) (compound A) for 48 hours. At the end the cells were trypsinized and centrifuge 1000 rpm for 5 minutes, the supernatant was removed, added 1 ml of DMEM/F12 medium to resuspend the cells, followed by 0.4% trypan blue and the cell culture medium were 1:3 dilution, the number of cells were calculate under a microscope to observe the survivability of different concentrations treatment. The results are shown in FIG. 1. *P<0.05, **P<0.01 compared to the 0 μg/ml compound A group, Student's t-test. Data are expressed as mean±SD (n=3).

Assay [2] deals with BAC induced dry eye mice. The assay can be described thus: Benzalkonium chloride induced dry eye mice model (1), phenol red thread tear test. The format is in vivo, Male BALB/c mice. The following applies: 0.3% BAC day 1 to 7; eye drops 2, 5 or 10 μg/ml three times a day, day 8 to 19; topical, right eye. The protocol:
Benzalkonium Chloride Induced Dry Eye Mice Model (1)
Male BALB/c mice (6 weeks) was treated with thrice-daily (9:00, 13:30, 18:00) topical administration of 5 ul of 0.3% BAC in right eyes, mice was treated with PBS as control group, from day 1 to 7. And compound A (2, 5, 10 μg/ml) was treated with thrice-daily (9:00, 13:30, 18:00) topical administration of 5 ul in right eyes, and PBS as control group, from day 8 to 19.
Phenol red thread tear test was used. The thread is yellow (acidic) and when it comes in contact with tears it changes to a light red color. Forceps were used to insert folded portion of the thread into the palpebral conjunctiva of the eye ⅓ of the distance from the lateral canthus of the lower eye lid. After 15 s, the thread was removed and the entire wet (Red) portion was measured. The phenol red thread test was on 7, 11, 15, 19 day. The results are shown in FIG. 2. *P<0.05, **P<0.01 compared to the control, Student's t-test. Data are expressed as mean±SD (n=5-6).

Assay [3] relates to BAC induced dry eye mice. Put plainly: Benzalkonium chloride induced dry eye mice model (2), phenol red thread tear test. The format is in vivo, Male BALB/c mice. The following applies: 0.3% BAC day 1 to 7; eye drops 5, 10 μg/ml thrice-daily, day 15 to 19; topical, right eye. How it is done:
Benzalkonium Chloride Induced Dry Eye Mice Model (2)
Male BALB/c mice (9 weeks) was treated with thrice-daily (9:00, 13:30, 18:00) topical administration of 5 ul of 0.3% BAC in right eyes, mice was treated with PBS as control group, from day 1 to 7. And compound A (5, 10 μg/ml) was treated with thrice-daily (9:00, 13:30, 18:00) topical administration of 5 ul in right eyes, and PBS as control group, from day 15 to 19.
Phenol red thread tear test was used. The thread is yellow (acidic) and when it comes in contact with tears it changes to a light red color. Forceps were used to insert folded portion of the thread into the palpebral conjunctiva of the eye ⅓ of the distance from the lateral canthus of the lower eye lid. After 15 s, the thread was removed and the entire wet (Red) portion was measured. The phenol red thread test was on 14, 18, 20 day. The results are shown in FIG. 3. *P<0.05, **P<0.01 compared to the control, Student's t-test. Data are expressed as mean±SD (n=5-6).

Another assay concerns NGF. Put plainly: Tear NGF protein expression in BAC induced dry eye mice (western blot). The format is in vivo. The following applies: tear of BAC induced dry eye mice; eye drops 2, 5 or 10 μg/ml three times a day for 10 days. How it is done: Tear was collected from right eye of BAC induced dry eye mice by 10 μl PBS wash. Mice treated eyes drop of PBS as control and different concentration Compound A for 10 days. NGF protein was a positive control. 5 μl tear volume used in western blot.
The total protein concentration was determined by 1×Braford assay. To denature, use a loading buffer(7 ml 0.5M Tris pH6.8, 3 ml Glycerol, 1 g 10% SDS, 0.93 g DTT, […] 0.05% bromophenol blue, 10 ml), and boil the mixture at 95-100° C. for 5 minutes. Total protein was loaded 20-40 μg per mini-gel (12% SDS-polyacrylamide gel) well for electrophoresis. Then transfer the proteins into polyvinylidene difluoride membrane and blocking the membrane with 5-10% nonfat dried milk in TTBS. The membrane was incubated with the primary antibody overnight at 4° C. by shaking. Wash the membrane several times in TTBS to remove residual primary antibody. And the membrane was incubated with secondary antibody for 2 hours at room temperature.
The protein levels were determined by chemiluminescene detection system and analysis by Imagequant software. The results are shown in FIG. 4. *P<0.05, **P<0.01, ***P<0.001 compared to the control, Student's t-test. Data are expressed as mean±SD (n=4).
(A western blot detects proteins with antibodies after separation by electrophoresis.)

SMILES strings stand for the structures.

Take `OC[C@H]1O[C@@H](Oc2c(O)cc(O)cc2/C=C/c2ccc(O)cc2)[C@H](O)[C@@H](O)[C@@H]1O` [compound of Formula (I), 2,3,5,4′-tetrahydroxystilbene 2-O-β-D-glucopyranoside]: in assay [1], the “cell viability after BAC damage” value is recorded as “increased cell viability”. Moreover, the tear secretion entry is recorded as “restored tear secretion” in the assay on BAC induced dry eye mice [2] and “improves tear secretion” with BAC induced dry eye mice [3]. Further, in the assay with NGF, the NGF expression level result is listed as “increased the NGF gene expression level”.
